Data taken from patent US20120040951A1, “HETEROARYL COMPOUNDS USEFUL AS RAF KINASE INHIBITORS” (priority 2008, published 2012).

Each molecule was assayed on phospho-ERK in melanoma derived WM-266-4 cells (assay: Mechanistic cellular assay for Raf kinase activity (phospho-ERK, Bio-Plex)). Settings: Homo sapiens, treated 1-2 hr at 37° C., serum free medium, read-out: pERK EC50.
Assay type: cell-based
Excerpt: (2) Mechanistic Cellular Assay for Raf Kinase Activity
The following method was utilized for quantifying the amount of phospho-ERK in melanoma derived WM-266-4 cells (one allele each of wild type BRaf and mutant BRaf (V600D) as an indicator of Raf kinase activity in cells treated with various kinase inhibitors.
(1) Detached adhered WM-266-4 cells from flask using 0.25% Trypsin. Resuspended cells in growth media (90% RPMI 1640, 10% FBS) and determine cell density.
(2) Seeded cells @ 10,000 cells/well in 96-well (flat bottom) tissue culture plates (36,000 cells/cm^2). Added growth media to a final volume of 200 uL/well and incubated overnight at 37° C.
(1) Prepared compound dilutions (1000× in DMSO) as follows. Starting with a stock of 5 mM compound in DMSO, diluted serially 3-fold in DMSO for a total of eight concentrations (5 mM, 1.67 mM, 0.556 mM, 0.185 mM, 0.062 mM, 0.021 mM, 0.007 mM, 0.002 mM).
(2) Prepared compound-containing media by adding 1 mL treatment media (100% RPMI 1640 without FBS) to 1 μL of compound dilution (from step 3).
(3) Removed plates (from step 2) from incubator. Aspirated media and replace with 150 μL compound-containing media. Incubate for 1-2 hr at 37° C.
(4) Removed plates (from step 5) from incubator and treated each as follows: aspirated compound-containing media and replaced with 300 μL ice-cold 1×PBS, aspirated PBS and replaced with 45 μL lysis buffer (Biorad Bio-Plex lysis buffer containing 0.4% v/v lysis buff. Factor 1, 0.2% v/v lysis buff. Factor 2, and PMSF to 2 mM final concentration), and then placed plate on ice until all plates were treated.
(5) After all plates were processed (step 6), placed plates on an orbital shaker and shook at room temperature for at least 15 min.
(6) Finally, removed plates from shaker, and transfered 40 μL/well of lysate from each to new corresponding 96-well V-bottom plates. At this point, samples may be frozen and stored @−80 C.°.
(1) Thaw (if necessary) plates (from step 8) and added 40 μL of Phospho-Protein Assay Buffer to each 40 μL lysate for a 1:1 dilution.
(2) Prepared phospho-ERK1,2 Bioplex beads by diluting 1:50 with Bioplex Wash Buffer (mixing 49 μL Wash Buffer with 1 μL of phospho-ERK1,2 Bioplex beads for each sample to be analyzed). Protected from light by wrapping tube in aluminum foil and kept at room temperature.
(3) Prepared Filter Plate by adding 100 μL/well Bioplex Wash Buffer and removed by vacuum filtration.
(4) Add 50 μL of bead solution (from step 10) to each well of a prepared Filter Plate (from step 11) and vacuum filter. Wash/filter 2× with 100 μL/well Wash Buffer.
(5) Added 50 μL of each lysate to appropriate well of the Filter Plate (from step 12). For this and all subsequent plate incubation steps, placed plate on an inverted plate cover (reduces background), and wrapped in aluminum foil (to protect from light). Shook overnight at room temperature. Included positive (control lysate) and negative (lysis buffer) controls.
(1) Prepared detection antibody (phospho-ERK1,2 Ab) by diluting 1:25 with Detection Antibody Dilution Buffer Buffer (mixing 24 μL Detection Antibody Dilution Buffer with 1 μL of phospho-ERK1,2 Ab for each sample to be analyzed).
(2) Removed plate (from step 13) from shaker and vacuum filter. Washed/filter plate 3× with 100 μL/well Wash Buffer. Added 25 μL of diluted antibody to each well. Incubated on shaker at RT for 30-45 min.
(3) Prepared streptavidin-PE by diluting 1:100 with Wash Buffer (mixing 49.5 μL Wash Buffer with 0.5 μL of 100× streptavidin-PE for each sample to be analyzed). Protected from light.
(4) Removed plate (from step 15) from shaker and vacuum filter. Washed/filter plate 3× with 100 μL/well Wash Buffer. Add 50 μL of diluted streptavidin-PE solution (from step 16) to each sample well. Incubated on shaker for 10-20 min.
(5) Removed plate from shaker and vacuum filter. Wash/filter plate 3× with 100 μL/well Bead Resuspension Buffer. After last wash resuspended beads in 125 μL Bead Resuspension Buffer. […]

SMILES	EC50
C[C@@H](NC(=O)c1cn[nH]c1)c1ncc(C(=O)Nc2cc(C(F)(F)F)c(Cl)cn2)s1 [Example 112]	0.1 to 1 µM
CC(NC(=O)c1cn2c(NC(C)(C)CC(C)(C)C)cnc2cn1)c1ncc(Nc2ccc(C(F)(F)F)cc2)s1 (centres unmarked) [Example 301]	1 to 10 µM
Cc1c(C(=O)N[C@H](C)c2ncc(C(=O)Nc3cc(C(F)(F)F)c(Cl)cn3)s2)cnn1-c1ccccc1 [Example 114]	1 to 10 µM
CCn1c(C(=O)N[C@H](C)c2ncc(C(=O)Nc3cc(C(F)(F)F)c(Cl)cn3)s2)cnc1N [Example 149]	≤ 0.1 µM
CCc1ncc(C(=O)N[C@H](C)c2ncc(C(=O)Nc3cc(C(F)(F)F)c(Cl)cn3)s2)n1CC [Example 163]	0.1 to 1 µM
C[C@@H](NC(=O)c1cnn(-c2cccnc2)c1)c1ncc(C(=O)Nc2cc(C(F)(F)F)c(Cl)cn2)s1 [Example 116]	0.1 to 1 µM
CC(NC(=O)c1cnn2cc(-c3cnc(N)nc3)ccc12)c1ncc(C(=O)Nc2cc(C(F)(F)F)c(Cl)cn2)s1 (centres unmarked) [Example 327]	≤ 0.1 µM
CC(NC(=O)c1cnn2cc(-c3cc(F)nc(F)c3)ccc12)c1nc(C(=O)Nc2cc(C(F)(F)F)c(Cl)cn2)cs1 (centres unmarked) [Example 325]	0.1 to 1 µM
CC(NC(=O)c1cccc(-n2ccnc2)c1)c1ncc(C(=O)Nc2cc(C(F)(F)F)c(Cl)cn2)s1 (centres unmarked) [Example 48]	0.1 to 1 µM
CC(NC(=O)c1cnn2cc(-c3cncc(F)c3)ccc12)c1ncc(C(=O)Nc2cc(C(F)(F)F)c(Cl)cn2)s1 (centres unmarked) [Example 329]	≤ 0.1 µM
CCCn1ncc(C(=O)N[C@H](C)c2ncc(C(=O)Nc3cc(C(F)(F)F)c(Cl)cn3)s2)c1C [Example 122]	0.1 to 1 µM
C[C@@H](NC(=O)c1cnc2n1CCNC2)c1ncc(C(=O)Nc2cc(C(F)(F)F)c(Cl)cn2)s1 [Example 315]	0.1 to 1 µM
C[C@@H](NC(=O)c1cnc2cnccn12)c1ncc(C(=O)Nc2cc(C(F)(F)F)c(Cl)cn2)s1 [Example 312]	≤ 0.1 µM
C[C@@H](NC(=O)c1cnc(N)s1)c1ncc(C(=O)Nc2cc(C(F)(F)F)c(Cl)cn2)s1 [Example 102]	≤ 0.1 µM
CC(NC(=O)c1cncc(Br)c1)c1ncc(C(=O)Nc2cc(C(F)(F)F)c(Cl)cn2)s1 (centres unmarked) [Example 50]	1 to 10 µM
C[C@@H](NC(=O)c1cnc2[nH]ccc2c1)c1ncc(C(=O)Nc2cc(C(F)(F)F)c(Cl)cn2)s1 [Example 81]	≤ 0.1 µM
COc1cc(-c2ccc3c(C(=O)NC(C)c4ncc(C(=O)Nc5cc(C(F)(F)F)c(Cl)cn5)s4)cnn3c2)ccn1 (centres unmarked) [Example 330]	0.1 to 1 µM
CCc1nc2cnc(C(=O)NC(C)c3ncc(Nc4ccc(C(F)(F)F)cc4)s3)cn2c1NC(C)(C)CC(C)(C)C (centres unmarked) [Example 306]	1 to 10 µM
C[C@@H](NC(=O)c1cnc2n1CC(=O)N2)c1ncc(C(=O)Nc2cc(C(F)(F)F)c(Cl)cn2)s1 [Example 170]	0.1 to 1 µM
C[C@@H](NC(=O)c1cnn2cccnc12)c1ncc(C(=O)Nc2cc(C(F)(F)F)c(Cl)cn2)s1 [Example 226]	0.1 to 1 µM
CC(NC(=O)c1cnn2cc(-c3ccnc(F)c3)ccc12)c1nc(C(=O)Nc2cc(C(F)(F)F)c(Cl)cn2)cs1 (centres unmarked) [Example 326]	0.1 to 1 µM
CC(NC(=O)c1cnn2cc(-c3cncnc3)ccc12)c1ncc(C(=O)Nc2cc(C(F)(F)F)c(Cl)cn2)s1 (centres unmarked) [Example 328]	≤ 0.1 µM

Other lines, results leading:

EC50	SMILES
≤ 0.1 µM	CC(NC(=O)c1cc2c(cn1)ncn2C)c1cnc(Nc2ccc(Cl)c(S(=O)(=O)C(F)(F)F)c2)cn1 (centres unmarked) [Example 269]
0.1 to 1 µM	C[C@@H](NC(=O)c1cc2c(cn1)ncn2C1CN(S(=O)(=O)CC(F)(F)F)C1)c1cnc(Nc2ccc(C(F)(F)F)cc2)cn1 [Example 344]
≤ 0.1 µM	CC(NC(=O)c1cc2c(cn1)ncn2C)c1cnc(Nc2cnc(C(C)(C)C)nc2)s1 (centres unmarked) [Example 240]
0.1 to 1 µM	COc1cn2ncnc(C(=O)NC(C)c3cnc(Nc4ccc(C(F)(F)F)cc4)s3)c2c1C (centres unmarked) [Example 337]
0.1 to 1 µM	CCn1cnc2cnc(C(=O)NC(C)c3cnc(Nc4ccc(C(F)(F)F)cc4)cn3)nc21 (centres unmarked) [Example 192]
≤ 0.1 µM	CC(NC(=O)c1cc2scnc2cn1)c1cnc(Nc2ccc(C(F)(F)F)cc2)s1 (centres unmarked) [Example 208]
0.1 to 1 µM	CC(NC(=O)c1cc2c(cn1)ncn2C)c1cnc(Nc2ccc(S(=O)(=O)C(F)(F)F)cc2)s1 (centres unmarked) [Example 250]
1 to 10 µM	C[C@@H](NC(=O)c1cn(C)cn1)c1ncc(C(=O)Nc2cc(C(F)(F)F)c(Cl)cn2)s1 [Example 143]
≤ 0.1 µM	CC(NC(=O)c1cc2c(cn1)ncn2C1CCC1)c1cnc(Nc2ccc(C(F)(F)F)cc2)s1 (centres unmarked) [Example 14]
≤ 0.1 µM	CC(NC(=O)c1cc2c(cn1)ncn2C1CCOCC1)c1cnc(Nc2ccc(C(F)(F)F)cc2)s1 (centres unmarked) [Example 9]
0.1 to 1 µM	CC(NC(=O)c1cc2c(cn1)ncn2C)c1cnc(Nc2ccc(Cl)c(C(F)(F)F)c2)s1 (centres unmarked) [Example 258]
0.1 to 1 µM	Cc1nc2cnc(C(=O)NC(C)c3ncc(Nc4ccc(C(F)(F)F)cc4)s3)cn2c1N (centres unmarked) [Example 305]
1 to 10 µM	CC(NC(=O)c1cc2c(cn1)ncn2C)c1cnc(Nc2cc(Cl)ncn2)s1 (centres unmarked) [Example 260]
1 to 10 µM	C[C@@H](NC(=O)c1ccc2c(ccn2C)c1)c1ncc(C(=O)Nc2cc(C(F)(F)F)c(Cl)cn2)s1 [Example 69]
1 to 10 µM	CC(NC(=O)c1cc2c(cn1)ncn2C)c1cnc(Nc2ccccc2)s1 (centres unmarked) [Example 247]
0.1 to 1 µM	CC(NC(=O)c1cc2c(cn1)ncn2C1CCN(C)CC1)c1cnc(Nc2ccc(C(F)(F)F)cc2)s1 (centres unmarked) [Example 11]

EC50	SMILES
0.1 to 1 µM	CCN(CC)c1cnc2cnc(C(=O)NC(C)c3ncc(Nc4ccc(C(F)(F)F)cc4)s3)cn12 (centres unmarked) [Example 304]
1 to 10 µM	CC(NC(=O)c1cc2c(cn1)ncn2C)c1cnc(Nc2cc(C(F)(F)F)c(Cl)cn2)cn1 (centres unmarked) [Example 254]
≤ 0.1 µM	CC(NC(=O)c1cc2c(cn1)ncn2C)c1ncc(C(=O)Nc2cc(C(F)(F)F)c(Cl)cn2)s1 (centres unmarked) [Example 40]
≤ 0.1 µM	CCS(=O)(=O)N1CC(n2cnc3cnc(C(=O)N[C@H](C)c4cnc(Nc5ccc(C(F)(F)F)cc5)cn4)cc32)C1 [Example 342]
0.1 to 1 µM	CC(NC(=O)c1cc2c(cn1)ncn2CCN)c1cnc(Nc2ccc(C(F)(F)F)cc2)s1 (centres unmarked) [Example 23]
0.1 to 1 µM	CCN1CC(n2cnc3cnc(C(=O)NC(C)c4cnc(Nc5ccc(C(F)(F)F)nc5)s4)cc32)C1 (centres unmarked) [Example 294]
≤ 0.1 µM	CC(NC(=O)c1cc2c(cn1)ncn2C(C)(C)C)c1cnc(Nc2ccc(C(F)(F)F)cc2)s1 (centres unmarked) [Example 13]
0.1 to 1 µM	CC(NC(=O)c1cc2c(cn1)ncn2C)c1cnc(Nc2cccc(Cl)c2)s1 (centres unmarked) [Example 248]
1 to 10 µM	CC(NC(=O)c1cc2cn[nH]c2cn1)c1cnc(Nc2ccc(C(F)(F)F)cc2)s1 (centres unmarked) [Example 202]
0.1 to 1 µM	CC(NC(=O)c1cc2c(cn1)ncn2C)c1cnc(Nc2cccc(C(F)(F)F)n2)s1 (centres unmarked) [Example 253]
0.1 to 1 µM	CC(NC(=O)c1cn2c(N)cnc2cn1)c1ncc(Nc2ccc(C(F)(F)F)cc2)s1 (centres unmarked) [Example 302]
0.1 to 1 µM	CCn1cnc2cnc(C(=O)NC(C)c3cnc(Nc4ccc(C(F)(F)F)cn4)cn3)cc21 (centres unmarked) [Example 284]
0.1 to 1 µM	CCNc1cnc2cnc(C(=O)NC(C)c3ncc(Nc4ccc(C(F)(F)F)cc4)s3)cn12 (centres unmarked) [Example 303]
≤ 0.1 µM	C[C@@H](NC(=O)c1ccc2ncsc2c1)c1ncc(C(=O)Nc2cc(C(F)(F)F)c(Cl)cn2)s1 [Example 61]
0.1 to 1 µM	CC(NC(=O)c1cc2c(cn1)ncn2C)c1cnc(Nc2ccc(C(F)(F)F)cc2N(C)C)s1 (centres unmarked) [Example 275]
